# ChEMBL document CHEMBL6087398, “Natural phenol carbamates: Selective BuChE/FAAH dual inhibitors show neuroprotection in an Alzheimer's disease mouse model” (Eur J Med Chem, 2025)
# pIC50, pKd: −log10 of the molar value. Calls of active or inactive are those of the source. The rule behind the calls is not given here.
# What was measured:
# [1] = target: Acetylcholinesterase (Electrophorus electricus) (UniProt O42275); assay: Inhibition of electric eel AChE using acetylthiocholine iodide as substrate preincubated with enzyme for 20 mins followed by substrate addition and measured after 20 mins by Ellman's method; design: concentration or dose not given beside the values; conditions: time 40.0 min
# Acetylcholinesterase (Electrophorus electricus), sequence (O42275 24-633 limits assumed): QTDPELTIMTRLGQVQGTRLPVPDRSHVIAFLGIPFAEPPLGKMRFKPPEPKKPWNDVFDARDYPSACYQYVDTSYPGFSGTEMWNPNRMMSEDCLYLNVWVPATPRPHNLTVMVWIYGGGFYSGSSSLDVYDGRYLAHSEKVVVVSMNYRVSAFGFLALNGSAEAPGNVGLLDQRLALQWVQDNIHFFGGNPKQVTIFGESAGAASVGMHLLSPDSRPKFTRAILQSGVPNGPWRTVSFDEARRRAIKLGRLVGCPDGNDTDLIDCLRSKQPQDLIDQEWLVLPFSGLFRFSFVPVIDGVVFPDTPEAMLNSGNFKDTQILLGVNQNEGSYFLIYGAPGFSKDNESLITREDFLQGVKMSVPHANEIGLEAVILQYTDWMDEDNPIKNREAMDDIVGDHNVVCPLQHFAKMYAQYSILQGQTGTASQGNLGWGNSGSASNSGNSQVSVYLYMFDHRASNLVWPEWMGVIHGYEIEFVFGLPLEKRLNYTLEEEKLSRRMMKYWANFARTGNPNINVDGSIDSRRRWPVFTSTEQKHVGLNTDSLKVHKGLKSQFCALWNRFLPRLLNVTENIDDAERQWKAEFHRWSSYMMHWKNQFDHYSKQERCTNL
# [2] = target: Acetylcholinesterase (Electrophorus electricus) (UniProt O42275); assay: Inhibition of electric eel AChE using acetylthiocholine iodide as substrate preincubated with enzyme for 20 mins followed by substrate addition and measured after 20 mins by Ellman's method relative to control; design: concentration or dose not given beside the values; conditions: time 40.0 min
# Cholinesterase [3] = target: Cholinesterase (Equus caballus, UniProt P81908); assay: Inhibition of equine BuChE using butyrylthiocholine iodide as substrate preincubated with enzyme for 20 mins followed by substrate addition and measured after 20 mins by Ellman's method
# Cholinesterase (Equus caballus, UniProt P81908), sequence (P81908 whole entry): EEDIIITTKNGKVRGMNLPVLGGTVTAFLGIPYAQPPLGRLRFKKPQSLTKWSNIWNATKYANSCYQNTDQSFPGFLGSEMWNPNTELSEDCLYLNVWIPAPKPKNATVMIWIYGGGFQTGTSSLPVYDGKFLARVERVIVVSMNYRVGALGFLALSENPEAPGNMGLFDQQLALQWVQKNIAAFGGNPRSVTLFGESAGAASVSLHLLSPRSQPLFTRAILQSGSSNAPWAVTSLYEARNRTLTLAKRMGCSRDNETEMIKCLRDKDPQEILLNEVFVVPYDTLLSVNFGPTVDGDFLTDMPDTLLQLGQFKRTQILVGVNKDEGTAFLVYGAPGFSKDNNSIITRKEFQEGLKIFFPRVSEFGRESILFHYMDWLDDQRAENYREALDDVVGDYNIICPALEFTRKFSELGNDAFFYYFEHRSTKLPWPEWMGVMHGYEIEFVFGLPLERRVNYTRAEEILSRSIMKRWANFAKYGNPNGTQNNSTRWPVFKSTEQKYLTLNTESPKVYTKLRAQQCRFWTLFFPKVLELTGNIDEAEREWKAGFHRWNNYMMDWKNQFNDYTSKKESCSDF
# [4] = target: T1, Fatty-acid amide hydrolase 1 (Homo sapiens, UniProt O00519); assay: Inhibition of human FAAH using arachidonoyl amide as substrate incubated for 30 mins by fluorescence-based cayman assay
# T1 sequence (O00519 whole entry): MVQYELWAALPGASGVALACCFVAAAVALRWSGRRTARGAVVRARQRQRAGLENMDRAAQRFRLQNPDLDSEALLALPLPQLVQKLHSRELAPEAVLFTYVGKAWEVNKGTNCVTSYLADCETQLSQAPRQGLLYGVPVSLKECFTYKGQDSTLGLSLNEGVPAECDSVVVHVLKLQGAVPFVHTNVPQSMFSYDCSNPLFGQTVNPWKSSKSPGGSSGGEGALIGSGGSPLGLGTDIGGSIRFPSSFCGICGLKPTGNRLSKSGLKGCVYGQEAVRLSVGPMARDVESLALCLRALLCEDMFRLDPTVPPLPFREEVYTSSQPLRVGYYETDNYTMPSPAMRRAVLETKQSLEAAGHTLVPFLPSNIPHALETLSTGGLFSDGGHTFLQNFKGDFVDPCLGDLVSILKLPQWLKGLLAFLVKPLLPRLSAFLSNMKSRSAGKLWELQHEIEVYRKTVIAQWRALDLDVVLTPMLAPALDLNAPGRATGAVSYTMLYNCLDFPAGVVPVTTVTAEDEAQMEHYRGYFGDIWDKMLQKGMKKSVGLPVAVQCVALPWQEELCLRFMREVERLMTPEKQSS
# Cholinesterase [5] = target: T2, Cholinesterase (Homo sapiens, UniProt P06276); assay: Inhibition of human BuChE using butyrylthiocholine iodide as substrate incubated for 5 mins
# T2 sequence (P06276 whole entry): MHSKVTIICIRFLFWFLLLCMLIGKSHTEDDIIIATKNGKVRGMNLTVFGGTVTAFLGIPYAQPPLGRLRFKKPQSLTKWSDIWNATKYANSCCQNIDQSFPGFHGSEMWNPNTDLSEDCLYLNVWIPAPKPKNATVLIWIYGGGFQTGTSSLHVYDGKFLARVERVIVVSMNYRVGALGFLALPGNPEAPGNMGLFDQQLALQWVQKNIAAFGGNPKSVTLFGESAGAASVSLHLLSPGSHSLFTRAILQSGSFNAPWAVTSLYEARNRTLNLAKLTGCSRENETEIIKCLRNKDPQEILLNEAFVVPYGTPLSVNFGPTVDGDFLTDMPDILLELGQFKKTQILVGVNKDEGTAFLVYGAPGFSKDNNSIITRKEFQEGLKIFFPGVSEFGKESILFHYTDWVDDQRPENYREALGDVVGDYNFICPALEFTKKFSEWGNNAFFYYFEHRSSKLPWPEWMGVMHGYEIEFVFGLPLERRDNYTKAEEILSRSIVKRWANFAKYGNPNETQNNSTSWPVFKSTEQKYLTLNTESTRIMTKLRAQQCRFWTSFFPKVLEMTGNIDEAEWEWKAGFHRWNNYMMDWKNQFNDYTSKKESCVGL
# [6] = target: Acetylcholinesterase (Homo sapiens) (UniProt P22303); assay: Inhibition of recombinant human AChE using acetylthiocholine iodide as substrate incubated for 5 mins relative to control
# Acetylcholinesterase (Homo sapiens), sequence (P22303 whole entry): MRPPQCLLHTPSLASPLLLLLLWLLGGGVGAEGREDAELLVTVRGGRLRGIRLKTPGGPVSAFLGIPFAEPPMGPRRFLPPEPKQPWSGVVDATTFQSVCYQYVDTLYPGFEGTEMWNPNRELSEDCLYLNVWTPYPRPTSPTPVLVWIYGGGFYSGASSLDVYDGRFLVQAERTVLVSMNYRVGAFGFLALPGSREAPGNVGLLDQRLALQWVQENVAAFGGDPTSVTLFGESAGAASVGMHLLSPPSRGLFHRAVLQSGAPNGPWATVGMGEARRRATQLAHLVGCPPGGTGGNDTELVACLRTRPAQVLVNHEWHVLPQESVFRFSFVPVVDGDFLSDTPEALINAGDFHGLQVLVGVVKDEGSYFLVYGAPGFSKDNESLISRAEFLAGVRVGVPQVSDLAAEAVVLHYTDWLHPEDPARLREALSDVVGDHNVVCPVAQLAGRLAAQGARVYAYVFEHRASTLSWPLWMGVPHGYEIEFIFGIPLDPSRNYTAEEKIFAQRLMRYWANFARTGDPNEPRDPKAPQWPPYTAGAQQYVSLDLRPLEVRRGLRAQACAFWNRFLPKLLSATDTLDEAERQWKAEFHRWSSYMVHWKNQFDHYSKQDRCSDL
# L02 [7] = assay: Cytotoxicity against human L02 cells assessed as reduction in cell viability at 50 uM incubated for 24 hrs by MTT assay; format: toxicity, cell-based; conditions: l02, 24 h
# L02 [8] = assay: Cytotoxicity against human L02 cells assessed as reduction in cell viability at 12.5 uM incubated for 24 hrs by MTT assay; format: toxicity, cell-based; conditions: l02, 24 h
# PC-12 [9] = assay: Neuroprotective activity against H2O2 induced rat PC12 cells assessed as increase in cell viability at 50 uM measured after 24 hrs by MTT assay relative to control; format: functional
# in vitro = conditions: PAMPA, pH 7.4
# Description: Permeability of the compound in PBS at pH 7.4 incubated for 18 hrs by PAMPA-BBB assay
# PC-12 [10] = assay: Neuroprotective activity against H2O2 induced rat PC12 cells assessed as cell viability measured after 24 hrs by MTT assay; format: functional, cell-based; conditions: dose 6.25-50 µM
# Cholinesterase [11] = target: T2, Cholinesterase; assay: Binding affinity to human BuChE (unknown origin) assessed as overall carbamolyation rate at 0.025 to 100 uM incubated for 60 mins
# L02 [12] = assay: Cytotoxicity against human L02 cells assessed as reduction in cell viability at 25 uM incubated for 24 hrs by MTT assay; format: toxicity, cell-based; conditions: l02, 24 h
# Cholinesterase [13] = target: T2, Cholinesterase; assay: Binding affinity to human BuChE (unknown origin) assessed as carbamolyation rate at 0.025 to 100 uM incubated for 60 mins; conditions: dose 0.025-100 µM
# Cholinesterase [14] = target: T2, Cholinesterase; assay: Binding affinity to human BuChE (unknown origin) assessed as decarbamolyation rate at 0.025 to 100 uM incubated for 60 mins; conditions: dose 0.025-100 µM
# Cholinesterase [15] = target: T2, Cholinesterase; assay: Binding affinity to human BuChE (unknown origin) assessed as equilibrium dissociation constant at 0.025 to 100 uM incubated for 60 mins
SMILES,inhibition [1],pIC50 (Cholinesterase [3]),further results
C=CCc1ccc(OC(=O)N(C)CC)c(OC)c1,69%,,inhibition [2]: 74%
COc1ccc(C(C)=O)c(OC(=O)N2CCc3cc(OC)c(OC)cc3C2)c1,inactive,5.45,
O=C(Oc1ccc([N+](=O)[O-])cc1)N1CCN(Cc2cccc(Oc3ccccc3)c2)CC1,,,pIC50 [4]: 7.96
Cc1ccc(C(C)C)cc1OC(=O)N(C)Cc1cccc(Cl)c1,36%,5.95,
COc1ccc(C(C)=O)c(OC(=O)N(C)Cc2cccc(Br)c2)c1,inactive,5.47,
COc1ccc(C(C)=O)c(OC(=O)N(C)Cc2ccc(Cl)cc2)c1,5.8%,7.24,pIC50 (Cholinesterase [5]): 7.05; pIC50 [4]: 4.78; inhibition [6]: inactive
COc1ccc(C(C)=O)c(OC(=O)N(C)Cc2ccccc2)c1,6.6%,6.72,
COc1ccc(C(C)=O)c(OC(=O)N(C)C)c1,8.3%,5.79,
C=CCc1ccc(OC(=O)N(C)Cc2ccc(Br)cc2)c(OC)c1,inactive,,inhibition [2]: 57%
C=CCc1ccc(OC(=O)N(C)C)c(OC)c1,inactive,,inhibition [2]: 69%
C=CCc1ccc(OC(=O)N2CCCCC2)c(OC)c1,42%,6.51,
C=CCc1ccc(OC(=O)NC)c(OC)c1,42%,,inhibition [2]: 53%
COc1ccc(C(C)=O)c(OC(=O)N(C)Cc2cccc(F)c2)c1,20%,6.40,
COc1ccc(C(C)=O)c(OC(=O)N(C)Cc2ccc(Br)cc2)c1,34%,5.55,
COc1ccc(C(C)=O)c(OC(=O)Nc2ccc(Cl)cc2)c1,4.6%,5.90,
CNC(=O)Oc1cc(C(C)C)ccc1C,56%,5.53,
CCN(C)C(=O)Oc1cc(OC)ccc1C(C)=O,1.7%,5.43,
COc1ccc(C(C)=O)c(OC(=O)N2CCC(C)CC2)c1,33%,7.10,pIC50 (Cholinesterase [5]): 5.71; pIC50 [4]: 4.55; inhibition [6]: 23%
Cc1ccc(C(C)C)cc1OC(=O)N(C)Cc1ccc(Br)cc1,32%,5.71,

SMILES,inhibition [1],pIC50 (Cholinesterase [3]),further results
C=CCc1ccc(OC(=O)N2CCc3ccccc3C2)c(OC)c1,65%,,inhibition [2]: 23%
Cc1ccc(C(C)C)cc1OC(=O)N(C)C,62%,6.23,
C=CCc1ccc(OC(=O)N(C)Cc2ccccc2)c(OC)c1,25%,,inhibition [2]: inactive
COc1ccc(C(C)=O)c(OC(=O)N2CCSC2)c1,44%,6.19,
Cc1ccc(C(C)C)cc1OC(=O)N1CCCCC1,,7.52,
COc1ccc(C(C)=O)c(OC(=O)N2CCc3ccccc3C2)c1,27%,4.94,
CCN(C)C(=O)Oc1cccc([C@H](C)N(C)C)c1 [RIVASTIGMINE],,,pIC50 [4]: 4.85; inhibition [6]: 4.65%
COc1ccc(C(C)=O)c(OC(=O)N(C)Cc2ccccc2F)c1,inactive,6.03,
Cc1ccc(C(C)C)cc1OC(=O)N1CCCC1,inactive,6.17,
COc1ccc(C(C)=O)c(OC(=O)N2CCC(Cc3ccccc3)CC2)c1,43%,6.51,
COc1cc2c(cc1OC)C(=O)C(CC1CCN(Cc3ccccc3)CC1)C2 (centres undefined) [DONEPEZIL],,,Activity (L02 [7]): 83.4%; Activity (L02 [8]): Non-toxic; Activity (PC-12 [9]): 43%
COc1ccc(C(C)=O)c(OC(=O)N2CCCCC2)c1,6.9%,8.22,pIC50 (Cholinesterase [5]): 6.95; pIC50 [4]: 5.10; Papp at 18 h (in vitro): 17.5 ×10⁻⁶ cm/s; Activity (PC-12 [10]): Dose-dependent-effect; Activity (L02 [7]): 81.4%; Activity (L02 [8]): Non-toxic; Activity (PC-12 [9]): 42%; Ki (Cholinesterase [11]): 0.31 10^-3/uM/min; inhibition [6]: inactive; Activity (L02 [12]): 81.6%; K (Cholinesterase [13]): 0.41 min⁻¹; K (Cholinesterase [14]): 0.024 min⁻¹; pKd (Cholinesterase [15]): 6.52
COc1ccc(C(C)=O)c(OC(=O)N2CCCC2)c1,21%,5.71,
C=CCc1ccc(OC(=O)N2CCCC2)c(OC)c1,inactive,5.70,
CCN(Cc1ccc(Cl)cc1)C(=O)Oc1cc(OC)ccc1C(C)=O,inactive,6.38,
CCN(C)C(=O)Oc1cc(C(C)C)ccc1C,inactive,6.11,
C=CCc1ccc(OC(=O)N(C)Cc2cccc(Br)c2)c(OC)c1,17%,,inhibition [2]: 67%
Cc1ccc(C(C)C)cc1OC(=O)N(C)Cc1cccc(Br)c1,37%,5.42,
CNC(=O)Oc1cc(OC)ccc1C(C)=O,23%,5.60,
